From ChEMBL document CHEMBL1201862, “PubChem BioAssay data set” (2004) come the findings set out here.

Active and inactive are the calls of the source.

One may read the AC50 as the concentration at which the activity in the assay is half-maximal. The term EC50 denotes the concentration that produces a half-maximal response. Broadly, the IC50 is the point on the concentration scale where inhibition reaches its midpoint. As usually defined, the CC50 is the concentration at which the toxic effect on the cells reaches its halfway point.

Assay [1] concerns the target T1, Replicative DNA helicase DnaB (Mycobacterium tuberculosis, UniProt P9WMR3).
T1 sequence (P9WMR3 whole entry): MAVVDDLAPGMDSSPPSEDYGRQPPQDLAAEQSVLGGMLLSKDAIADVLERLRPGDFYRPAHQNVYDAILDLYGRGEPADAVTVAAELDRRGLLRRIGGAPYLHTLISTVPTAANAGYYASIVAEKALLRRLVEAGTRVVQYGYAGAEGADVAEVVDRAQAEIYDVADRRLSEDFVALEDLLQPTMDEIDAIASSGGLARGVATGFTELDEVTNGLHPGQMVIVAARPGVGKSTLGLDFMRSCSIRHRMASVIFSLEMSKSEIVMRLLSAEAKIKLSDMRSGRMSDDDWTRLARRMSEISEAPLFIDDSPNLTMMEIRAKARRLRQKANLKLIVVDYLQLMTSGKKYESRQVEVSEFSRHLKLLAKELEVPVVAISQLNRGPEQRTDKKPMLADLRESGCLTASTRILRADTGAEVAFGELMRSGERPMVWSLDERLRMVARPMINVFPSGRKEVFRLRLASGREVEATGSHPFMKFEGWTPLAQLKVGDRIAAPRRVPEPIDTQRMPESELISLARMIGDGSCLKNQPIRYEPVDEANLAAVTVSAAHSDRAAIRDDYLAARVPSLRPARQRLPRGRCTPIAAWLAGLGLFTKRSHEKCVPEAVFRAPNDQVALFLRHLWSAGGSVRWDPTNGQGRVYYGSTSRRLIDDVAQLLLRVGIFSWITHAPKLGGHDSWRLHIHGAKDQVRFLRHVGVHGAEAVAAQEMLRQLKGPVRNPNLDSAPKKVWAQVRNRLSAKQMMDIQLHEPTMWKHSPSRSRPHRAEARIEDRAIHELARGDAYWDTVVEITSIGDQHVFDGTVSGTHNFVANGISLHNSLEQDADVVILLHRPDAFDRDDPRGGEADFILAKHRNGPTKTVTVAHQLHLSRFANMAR
The experiment in a line: DnaB intein splicing inhibitors, dose response, biochemical, cell-free fluorescence (AID 449749). The format is functional.

In a further assay the target is T2, Protein RecA (Mycobacterium tuberculosis, UniProt P9WHJ3).
T2 sequence (P9WHJ3 whole entry): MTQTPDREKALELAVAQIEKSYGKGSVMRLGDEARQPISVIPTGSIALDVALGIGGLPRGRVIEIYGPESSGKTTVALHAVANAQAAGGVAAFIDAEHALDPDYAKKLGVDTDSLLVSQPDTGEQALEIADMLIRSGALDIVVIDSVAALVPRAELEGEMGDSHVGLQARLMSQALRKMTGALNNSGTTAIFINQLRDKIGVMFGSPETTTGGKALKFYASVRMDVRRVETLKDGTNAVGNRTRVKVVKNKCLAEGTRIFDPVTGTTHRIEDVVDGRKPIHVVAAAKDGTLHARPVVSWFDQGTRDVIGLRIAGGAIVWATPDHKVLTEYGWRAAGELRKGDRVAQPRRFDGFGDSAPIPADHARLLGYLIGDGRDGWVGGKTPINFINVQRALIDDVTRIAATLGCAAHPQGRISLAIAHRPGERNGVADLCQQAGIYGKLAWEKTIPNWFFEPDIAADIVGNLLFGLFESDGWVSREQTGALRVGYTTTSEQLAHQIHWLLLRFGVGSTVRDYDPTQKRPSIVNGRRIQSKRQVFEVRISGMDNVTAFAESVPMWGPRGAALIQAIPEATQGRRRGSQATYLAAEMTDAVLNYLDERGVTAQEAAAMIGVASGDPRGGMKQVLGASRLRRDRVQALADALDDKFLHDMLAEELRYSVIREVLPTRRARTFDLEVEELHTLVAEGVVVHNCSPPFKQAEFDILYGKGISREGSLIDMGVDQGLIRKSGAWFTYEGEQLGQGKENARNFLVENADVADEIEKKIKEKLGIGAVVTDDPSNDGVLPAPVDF
Put plainly: Fluorescence Cell-Free Homogeneous Dose Retest to Identify Inhibitors of RecA-Intein Splicing Activity. [Related pubchem assays (depositor defined):AID2097, AID2223, AID489010, AID492950]. Format: functional.

For the next assay, the target named is Genome polyprotein (dengue virus type 2, UniProt P29990). The experiment in a line: Dengue-2 NS5 methyltransferase inhibitors, primary screen, biochemical, confirmation dose response (AID 588689). Format: functional.
Assay [2] is described as follows: intracellular Trypanosoma cruzi inhibitors in host cells – cell-based, plate reader, cherry-pick samples, set 3, dose response (AID 651818).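 Note: compounds incubated with infected cells for about four days.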 The format is functional.
Assay [3] addresses Voltage-dependent T-type calcium channel subunit alpha-1H (Homo sapiens, UniProt O95180). The format is functional.
The target in the next assay is Cytochrome P450 3A4 (Homo sapiens, UniProt P08684).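 Note: CYP3A4 tested as one member of a cytochrome P450 panel screen.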
A further assay can be described thus: cells. Format: functional.
Assay [4] is described as follows: THP-1 cell cytotoxicity, dose response, cytotoxicity control for non-replicating M. tuberculosis project (AID 489025). The format is functional.
Assay [5] addresses T3, Short transient receptor potential channel 4 (Mus musculus, UniProt Q9QUQ5).
T3 sequence (Q9QUQ5 whole entry): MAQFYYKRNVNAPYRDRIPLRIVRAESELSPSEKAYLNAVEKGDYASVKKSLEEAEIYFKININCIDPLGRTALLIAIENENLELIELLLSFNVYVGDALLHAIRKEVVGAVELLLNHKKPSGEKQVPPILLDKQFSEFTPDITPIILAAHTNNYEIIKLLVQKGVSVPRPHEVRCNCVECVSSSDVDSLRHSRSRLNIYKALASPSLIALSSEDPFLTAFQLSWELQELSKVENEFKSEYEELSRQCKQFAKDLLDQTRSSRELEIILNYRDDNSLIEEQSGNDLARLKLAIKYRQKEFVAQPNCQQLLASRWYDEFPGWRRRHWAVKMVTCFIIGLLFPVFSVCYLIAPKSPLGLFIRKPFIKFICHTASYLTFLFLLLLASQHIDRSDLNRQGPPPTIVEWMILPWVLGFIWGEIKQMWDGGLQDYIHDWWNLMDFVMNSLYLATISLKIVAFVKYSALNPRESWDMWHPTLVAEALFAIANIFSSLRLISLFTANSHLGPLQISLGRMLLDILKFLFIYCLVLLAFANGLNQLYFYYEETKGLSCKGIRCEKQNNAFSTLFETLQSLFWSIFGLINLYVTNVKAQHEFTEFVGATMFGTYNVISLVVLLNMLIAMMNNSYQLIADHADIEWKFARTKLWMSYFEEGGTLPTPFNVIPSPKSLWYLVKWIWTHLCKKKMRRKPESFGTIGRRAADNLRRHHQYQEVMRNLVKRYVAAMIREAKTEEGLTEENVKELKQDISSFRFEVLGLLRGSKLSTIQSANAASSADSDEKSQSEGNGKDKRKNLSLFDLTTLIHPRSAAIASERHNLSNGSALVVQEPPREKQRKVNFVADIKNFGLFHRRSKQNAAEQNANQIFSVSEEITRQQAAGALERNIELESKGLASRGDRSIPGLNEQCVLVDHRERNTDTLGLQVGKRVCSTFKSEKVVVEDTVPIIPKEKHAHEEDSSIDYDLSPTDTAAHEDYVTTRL
Put plainly: mouse TRPC4 channel activators, dose response, cell-based, HEK293 TRPC4/mu-opioid, Fluo-4 calcium (AID 434937). Format: functional.

Assay [6] in a line: cytotoxicity toward NIH3T3 fibroblasts, dose response, counter-screen, cell-based, ATP luminescence, mouse fibroblasts (AID 2010).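 Note: cells exposed to compound for about 90 hours before reading.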 The format is functional. In general terms: Counterscreens check selectivity or assay interference.
Assay [7] is described as follows: inhibitors of SNCA 5'UTR-driven reporter translation, confirmation, H4 neuroglioma cells, luminescence (AID 1988). Format: functional, cell-based.
The nature of assay [8]: inhibitors of intracellular T. cruzi replication, confirmation, NIH3T3 host cells, beta-gal luminescence (AID 2044).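 Note: intracellular parasites grown in NIH/3T3 mouse fibroblasts as host cells; luminescent beta-galactosidase reporter signal from transgenic T. cruzi replicating inside host cells; inhibitors lower the luminescence signal.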 The format is functional, cell-based.
A short description of assay [9]: inhibitors of firefly luciferase expression or activity, dose response, H4 neuroglioma cells, luminescence (AID 1990). Format: functional, cell-based.
The nature of assay [10]: Luminescence Cell-Based Dose Response HTS to Identify Inhibitors of 5'UTR Stem-Loop Driven Prion Protein mRNA Translation in H4 Neuroglioblastoma Cells. [Related pubchem assays: 1827 (Project Summary), 1813 (Primary HTS)]. Format: functional.
The target of another assay is T4, Cytochrome P450 1A2 (Homo sapiens, UniProt P05177).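 Note: PubChem cytochrome P450 panel assay, CYP1A2 panel member.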
T4 sequence (P05177 whole entry): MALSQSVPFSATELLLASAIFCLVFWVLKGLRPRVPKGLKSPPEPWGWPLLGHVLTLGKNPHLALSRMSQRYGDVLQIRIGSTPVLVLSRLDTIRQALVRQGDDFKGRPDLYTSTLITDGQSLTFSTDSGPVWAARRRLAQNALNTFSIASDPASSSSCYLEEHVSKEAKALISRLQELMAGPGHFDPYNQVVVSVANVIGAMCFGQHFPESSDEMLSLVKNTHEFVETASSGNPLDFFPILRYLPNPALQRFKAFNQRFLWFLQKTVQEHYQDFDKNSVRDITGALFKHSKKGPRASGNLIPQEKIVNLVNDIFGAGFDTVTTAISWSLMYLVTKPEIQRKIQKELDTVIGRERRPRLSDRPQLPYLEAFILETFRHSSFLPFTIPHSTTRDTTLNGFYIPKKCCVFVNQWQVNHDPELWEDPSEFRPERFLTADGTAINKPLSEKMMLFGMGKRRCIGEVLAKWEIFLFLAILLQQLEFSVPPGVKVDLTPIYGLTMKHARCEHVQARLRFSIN

In assay [11] the test system is HEK293. Put plainly: NOD1 signaling inhibitors, primary screen, cell-based, luminescence, uHTS (AID 1578). Format: functional. The settings on record: Homo sapiens.
Assay [12] relates to HEK293. Put plainly: cells. Format: functional, cell-based. The settings on record: Homo sapiens.
The test system of assay [13] is HEK293. The experiment in a line: NOD2 signaling inhibitors in MDP-stimulated cells, cell-based, uHTS, luminescence (AID 2001). The format is functional. The settings on record: Homo sapiens.
The nature of assay [14]: Luminescence Cell-Based Dose Retest to Confirm Inhibitors of Cancer Stem Cells. [Related pubchem assays (depositor defined):AID2717, AID2721]. The format is functional. The settings on record: Homo sapiens.

Chain of Genome polyprotein (P29990 2492-3391 limits assumed): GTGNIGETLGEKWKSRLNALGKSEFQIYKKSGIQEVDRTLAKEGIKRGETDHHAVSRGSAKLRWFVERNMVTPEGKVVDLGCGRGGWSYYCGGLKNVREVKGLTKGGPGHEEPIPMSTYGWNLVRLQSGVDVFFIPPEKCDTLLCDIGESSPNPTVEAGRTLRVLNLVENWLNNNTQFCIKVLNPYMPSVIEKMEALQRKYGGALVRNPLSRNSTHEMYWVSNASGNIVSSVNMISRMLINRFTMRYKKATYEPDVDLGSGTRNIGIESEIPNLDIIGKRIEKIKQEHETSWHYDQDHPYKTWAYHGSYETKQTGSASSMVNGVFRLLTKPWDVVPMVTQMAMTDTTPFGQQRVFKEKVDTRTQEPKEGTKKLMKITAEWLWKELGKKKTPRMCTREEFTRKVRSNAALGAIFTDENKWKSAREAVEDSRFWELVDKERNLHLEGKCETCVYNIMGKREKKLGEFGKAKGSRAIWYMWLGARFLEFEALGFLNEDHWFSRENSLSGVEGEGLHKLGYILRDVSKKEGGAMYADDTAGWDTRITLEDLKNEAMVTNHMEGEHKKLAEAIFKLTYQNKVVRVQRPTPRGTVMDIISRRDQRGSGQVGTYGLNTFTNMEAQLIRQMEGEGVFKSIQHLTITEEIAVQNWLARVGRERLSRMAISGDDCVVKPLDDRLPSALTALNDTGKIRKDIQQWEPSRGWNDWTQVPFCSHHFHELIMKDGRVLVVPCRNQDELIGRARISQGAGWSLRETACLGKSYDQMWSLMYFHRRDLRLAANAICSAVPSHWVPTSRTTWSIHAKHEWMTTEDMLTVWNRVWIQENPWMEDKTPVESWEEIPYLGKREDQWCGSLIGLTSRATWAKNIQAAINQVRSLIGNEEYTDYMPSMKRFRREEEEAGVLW
Chain of Voltage-dependent T-type calcium channel subunit alpha-1H (O95180 whole entry): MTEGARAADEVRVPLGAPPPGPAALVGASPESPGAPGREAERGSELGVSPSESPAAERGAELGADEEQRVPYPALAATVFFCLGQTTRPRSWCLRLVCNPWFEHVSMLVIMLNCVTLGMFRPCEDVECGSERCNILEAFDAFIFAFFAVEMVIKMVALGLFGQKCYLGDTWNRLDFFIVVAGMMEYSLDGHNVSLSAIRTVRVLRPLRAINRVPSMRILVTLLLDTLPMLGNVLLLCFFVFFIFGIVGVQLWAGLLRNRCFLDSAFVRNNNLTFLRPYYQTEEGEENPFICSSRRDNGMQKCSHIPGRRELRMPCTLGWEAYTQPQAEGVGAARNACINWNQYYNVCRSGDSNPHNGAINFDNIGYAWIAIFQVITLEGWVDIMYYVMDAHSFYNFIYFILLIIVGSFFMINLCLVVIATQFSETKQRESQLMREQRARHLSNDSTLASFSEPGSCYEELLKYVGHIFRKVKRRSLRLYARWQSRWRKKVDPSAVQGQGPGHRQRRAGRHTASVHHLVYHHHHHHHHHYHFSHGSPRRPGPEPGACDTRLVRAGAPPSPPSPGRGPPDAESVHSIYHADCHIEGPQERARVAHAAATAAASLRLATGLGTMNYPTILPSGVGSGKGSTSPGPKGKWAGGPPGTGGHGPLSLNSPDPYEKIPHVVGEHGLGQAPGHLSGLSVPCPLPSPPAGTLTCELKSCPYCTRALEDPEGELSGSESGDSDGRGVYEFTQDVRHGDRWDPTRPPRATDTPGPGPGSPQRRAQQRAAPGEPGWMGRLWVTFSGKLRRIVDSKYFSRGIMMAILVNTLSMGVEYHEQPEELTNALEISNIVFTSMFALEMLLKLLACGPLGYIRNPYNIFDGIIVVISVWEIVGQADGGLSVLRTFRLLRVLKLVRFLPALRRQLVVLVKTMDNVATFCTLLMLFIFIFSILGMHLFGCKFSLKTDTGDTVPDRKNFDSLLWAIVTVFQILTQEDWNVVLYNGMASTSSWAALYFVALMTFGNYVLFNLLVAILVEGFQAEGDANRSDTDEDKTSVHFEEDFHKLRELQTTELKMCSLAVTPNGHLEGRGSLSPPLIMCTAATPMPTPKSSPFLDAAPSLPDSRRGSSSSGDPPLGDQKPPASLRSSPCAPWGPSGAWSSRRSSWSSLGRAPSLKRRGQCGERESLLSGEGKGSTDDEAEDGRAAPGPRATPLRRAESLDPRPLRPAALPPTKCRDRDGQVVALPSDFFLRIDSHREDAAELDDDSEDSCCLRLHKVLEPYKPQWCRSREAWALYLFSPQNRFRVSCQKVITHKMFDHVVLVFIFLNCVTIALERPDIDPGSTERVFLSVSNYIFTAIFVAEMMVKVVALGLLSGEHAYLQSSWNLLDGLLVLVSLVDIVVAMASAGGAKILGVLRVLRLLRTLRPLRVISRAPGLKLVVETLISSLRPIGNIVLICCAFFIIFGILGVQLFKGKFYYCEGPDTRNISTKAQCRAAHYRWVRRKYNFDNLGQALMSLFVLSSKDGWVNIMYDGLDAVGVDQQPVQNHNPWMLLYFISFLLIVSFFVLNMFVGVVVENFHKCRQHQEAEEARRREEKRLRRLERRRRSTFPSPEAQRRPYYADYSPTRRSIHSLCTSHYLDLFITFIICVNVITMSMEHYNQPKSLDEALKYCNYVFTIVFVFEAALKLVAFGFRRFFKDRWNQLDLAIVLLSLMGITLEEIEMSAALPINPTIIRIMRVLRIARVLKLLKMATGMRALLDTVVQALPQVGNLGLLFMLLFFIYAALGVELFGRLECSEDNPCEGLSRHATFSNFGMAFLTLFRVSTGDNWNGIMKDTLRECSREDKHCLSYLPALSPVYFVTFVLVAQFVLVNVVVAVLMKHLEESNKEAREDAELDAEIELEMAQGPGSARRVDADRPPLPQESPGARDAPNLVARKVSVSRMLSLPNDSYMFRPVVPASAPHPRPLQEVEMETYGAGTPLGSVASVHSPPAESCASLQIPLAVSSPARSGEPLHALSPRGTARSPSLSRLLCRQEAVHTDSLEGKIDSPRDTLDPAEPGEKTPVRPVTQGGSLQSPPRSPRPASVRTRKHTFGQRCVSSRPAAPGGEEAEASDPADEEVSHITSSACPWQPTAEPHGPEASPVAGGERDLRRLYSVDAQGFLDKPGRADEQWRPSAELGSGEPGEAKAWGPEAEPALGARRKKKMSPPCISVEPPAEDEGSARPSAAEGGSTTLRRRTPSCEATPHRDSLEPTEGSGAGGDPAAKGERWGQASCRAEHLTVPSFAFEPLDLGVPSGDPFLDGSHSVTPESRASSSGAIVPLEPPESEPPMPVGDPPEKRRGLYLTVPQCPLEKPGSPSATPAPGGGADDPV
Chain of Cytochrome P450 3A4 (P08684 whole entry): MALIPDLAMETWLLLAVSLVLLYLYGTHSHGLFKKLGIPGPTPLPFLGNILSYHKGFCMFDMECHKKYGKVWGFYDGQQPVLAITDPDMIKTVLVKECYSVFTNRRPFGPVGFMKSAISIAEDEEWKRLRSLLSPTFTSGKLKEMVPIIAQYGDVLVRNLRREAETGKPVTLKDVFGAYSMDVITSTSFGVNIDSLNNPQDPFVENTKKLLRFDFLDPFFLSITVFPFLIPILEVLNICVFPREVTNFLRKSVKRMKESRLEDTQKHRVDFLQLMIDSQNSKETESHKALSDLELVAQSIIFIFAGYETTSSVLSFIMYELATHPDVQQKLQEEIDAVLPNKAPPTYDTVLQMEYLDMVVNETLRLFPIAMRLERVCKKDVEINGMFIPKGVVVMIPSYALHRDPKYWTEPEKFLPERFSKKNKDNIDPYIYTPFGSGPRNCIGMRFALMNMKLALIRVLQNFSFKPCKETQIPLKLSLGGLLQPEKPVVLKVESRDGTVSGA

Take `O=C(O)CN1C(=O)/C(=C\c2cccc(OCc3ccc(Cl)cc3Cl)c2)SC1=S`: the AC50 in [1] was 2.73 µM (active). The EC50 on Protein RecA is 11.1 µM (active). Further, on Genome polyprotein, the IC50 was 36 µM (active). For `COc1ccc(S(=O)(=O)Nc2cccc3c2O[C@@H](CN(C)Cc2ccc(C(=O)Nc4ccccc4N)cc2)[C@H](C)CN([C@@H](C)CO)C3=O)cc1`, the AC50 in assay [2] is 3.61 µM (active). As to `O=C(CSc1nc2ccccc2[nH]1)Nc1ccc2c(c1)OCCO2`, the EC50 in assay [3] was 13.3 µM (active). As to `COc1ccccc1N(O)C1CC(=O)N(c2ccc(Br)cc2)C1=O` (stereo unspecified), the IC50 at Genome polyprotein was 34.7 µM (active). `CN1C(=O)C(=Cc2ccccc2Oc2ccc(Cl)c(F)c2)C(=O)N(C)C1=O`: the AC50 on Cytochrome P450 3A4 is 14.1 µM (inconclusive). Further, the IC50 on Genome polyprotein is 51.9 µM (active). On to `C[C@@H]1CN([C@H](C)CO)C(=O)Cc2cc(NC(=O)NC3CCCCC3)ccc2O[C@H]1CN(C)Cc1ccc(Oc2ccccc2)cc1`, for which the AC50 in assay [2] is 3.58 µM (active). For the molecule `Cc1cc(OCCCCn2ccnc2)cc(C)c1Cl`, the IC50 in the assay “cells” was 15.8 µM (active). Besides, the CC50 in [4] was 33.2 µM (active). In addition, the EC50 in [5] is 5.31 µM (active); in [6], > 60 µM (not active); in assay [7], 16 µM (active); in assay [8], 0.145 µM (active); in assay [9] it was > 120 µM (not active); in assay [10] it was > 120 µM (not active). For the molecule `O=C(Nc1ccn(Cc2ccccc2F)n1)c1ccc(COc2cc(Cl)ccc2Cl)o1`, the AC50 at Cytochrome P450 1A2 is 3.55 µM (inconclusive). Further, in assay [3], the EC50 was 7.11 µM (active). `COc1cc(/C=C2/CCc3ccccc3C2=O)cc(OC)c1OC`: in the assay on HEK293 [11], the EC50 was > 20 µM (inactive). The IC50 with HEK293 [12] is > 20 µM (inactive); in the assay with HEK293 [13], 9.24 µM (active). `C[C@H](CO)N1C[C@H](C)[C@@H](CN(C)Cc2ccncc2)Oc2c(NC(=O)Nc3ccc(C(F)(F)F)cc3)cccc2C1=O`: in assay [2], the AC50 is 2.97 µM (active). On to `O=C(COc1ccc(Cl)cc1)NCCSCc1cccc(Cl)c1`, for which, in [3], the concentration giving a half-maximal response (EC50) was 3.76 µM (active). The same measure, in the same setting: for `Cc1ccc(-c2ccc(/C=N/N3C(=O)C4C5C=CC(C6CC56)C4C3=O)o2)c([N+](=O)[O-])c1` (stereo unspecified) the value was 7.22 µM (active). Take `C[C@H]1CN([C@@H](C)CO)C(=O)c2cc(NS(=O)(=O)c3ccc(F)cc3)ccc2O[C@@H]1CN(C)Cc1ccc(Cl)c(Cl)c1`: the AC50 in assay [2] is 4.6 µM (active). For the molecule `Cc1snc(S(=O)(=O)/C(C#N)=N/Nc2ccc(C(F)(F)F)cc2)c1C#N`, the AC50 in assay [14] is 7.49 µM (active). For the same molecule, in assay [3], the EC50 is 6.48 µM (active). Take `COc1ccccc1NC(=O)c1nnn(Cc2ccccc2)c1NC(=O)C(F)(F)F`: the EC50 in [3] was 3.86 µM (active).

Take `C/C(CC(c1ccccc1)c1c(O)oc2ccccc2c1=O)=N\Nc1ccc([N+](=O)[O-])cc1[N+](=O)[O-]` (stereo unspecified): on Genome polyprotein, the concentration for half-maximal inhibition (IC50) was 94.4 µM (active).

For `C[C@@H]1CCCCO[C@H](CN(C)C(=O)C2CCCCC2)[C@@H](C)CN([C@H](C)CO)C(=O)c2cc(NC(=O)Nc3ccc(C(F)(F)F)cc3)ccc2O1`, in assay [2], the AC50 was 6.88 µM (active).
